Measured values published in patent publication US9365534B2, “Arylated camphenes, processes for their preparation and uses thereof” (Yissum Research Development Company of the Hebrew …, priority 2009, dated 2016).
Read-outs that look alike come from different tables or passages of the source.

Columns and labels:
human CB2 receptor [1] = biological target: T1, human CB2 receptor (Homo sapiens (Human), UniProt P34972); assay: Membrane competition binding assay with [3H]-CP 55,940, CHO-CB2 membranes
From the text: (§1) The cDNA clones for human HA-tagged CB1 and CB2 receptors were obtained from the Missouri S&T cDNA Resource Center (www.cdna.org) in cloning vector pcDNA3.1+. The vector containing the human CB2 receptor was transfected directly into CHO-KI cells obtained from ATCC. The HA-tagged human CB1 receptor sequence was subcloned into the pef4-V5-HisA vector with Kpn1 and Pme1 restriction enzymes and subsequently transfected into CHO-K1 cells. Cells were clonally isolated by limited dilution and screened by immunocytochemistry for expression of the HA tag.
(§2) Cells were maintained in DMEM/F12 media supplemented with 10% fetal bovine serum (FBS), 100 units/ml penicillin and 100 μg/ml streptomycin and 2 mM L-glutamine. Transfected cell lines were maintained with additional 150 ug/ml zeocin for pEF HA-CB1 transfected cells and 500 ug/ml G-418 for pcDNA HA-CB2 transfected cells (all reagents obtained from Invitrogen).
(§3) Cells were grown to confluence and harvested in ice cold phosphate buffered saline with 5 mM EDTA. Cells were spun at 200×g for 10 min and frozen at −80° C. until required. Cell pellets were thawed with cold 0.32 M sucrose and homogenised with a glass homogeniser. The homogenate was spun at 1000×g for 10 min at 4° C. and the supernatant spun in a Sorvall ultracentrifuge for 30 min at 100,000×g. The pellet was then washed in ice cold water and re-spun twice more. The final pellet was resuspended in 50 mM Tris pH 7.5, 0.5 mM EDTA. Protein concentration was determined using the Dc protein assay kit (BioRad, Hercules, Calif., USA).
(§4) Membranes (5-10 μg) were incubated with radioligand and a range of concentrations of test compounds in binding buffer (50 mM Tris pH 7.4, 5 mM MgCl2, 1 mM EDTA) with 0.5% (w/v) bovine serum albumin (BSA) (ICP Bio, New Zealand), at 30° C. for 60 min. Stock solutions of putative cannabinoid ligands were prepared in dimethyl sulfoxide to a concentration of 10 mM. Six different final concentrations of compounds were used ranging from 50 μM to 0.1 nM. […] Assays were terminated by addition of 2 ml ice cold binding buffer and filtration through GF/C filters (Whatman) pre-soaked in cold binding buffer, followed by two washes in the same buffer.
(§5) Radioactivity was determined by incubation of filters with Irgasafe scintillation fluid (PerkinElmer) and scintillation counting in a Wallac Trilux using Microbeta Trilux software. Data was analysed using the Prism 4.02 programme (GraphPad Software, San Deigo, Calif., USA).
(§6) All data was analyzed using Prism 4.02. For binding data the Ki was determined from IC50 values derived from competition binding data fitted with one site competition non-linear regression analysis by Prism 4.02 using the Kd values reported above.

human CB1 receptor [2] = biological target: T2, human CB1 receptor (Homo sapiens (Human), UniProt P21554); assay: Membrane competition binding assay with [3H]-CP 55,940, CHO-CB1 membranes; details: CHO-CB1 cellular membranes, 2.5 nM [3H]-CP 55,940; read-out: Competition Binding Assay CB1 Receptor Ki
T2 sequence (P21554 whole entry): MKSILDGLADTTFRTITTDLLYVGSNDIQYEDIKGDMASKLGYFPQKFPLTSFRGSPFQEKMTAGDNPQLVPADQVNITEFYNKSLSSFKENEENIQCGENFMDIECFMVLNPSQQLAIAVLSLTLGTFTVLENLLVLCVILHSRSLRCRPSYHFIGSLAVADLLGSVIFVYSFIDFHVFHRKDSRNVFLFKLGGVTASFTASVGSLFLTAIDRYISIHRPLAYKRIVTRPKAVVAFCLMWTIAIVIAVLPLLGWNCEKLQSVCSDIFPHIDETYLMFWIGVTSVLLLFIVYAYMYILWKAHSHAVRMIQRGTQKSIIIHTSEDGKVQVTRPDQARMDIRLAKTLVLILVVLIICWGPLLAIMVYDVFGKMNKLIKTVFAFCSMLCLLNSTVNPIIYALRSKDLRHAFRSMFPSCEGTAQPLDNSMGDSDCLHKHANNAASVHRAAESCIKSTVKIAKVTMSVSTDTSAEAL
From the text: as §1, §2, §3, §4, §5, §6

human CB1 receptor [3] = biological target: T2, human CB1 receptor; assay: cell-based; details: whole cells expressing CB1, 50 μM forskolin; read-out: cAMP Assay CB1 Receptor IC50
From the text: as §1, §2
(§7) Cells were seeded at a density of 10,000 cells per well in poly-L-lysine treated 96-well culture plates (BD Biosciences). The following day wells were incubated with 40 μl DMEM/F12 containing 0.5% (w/v) BSA and 0.5 mM 3-isobutyl-1-methylxanthine (Sigma-Aldrich) for 30 minutes prior to 15 min stimulation with 50 μM forskolin (Tocris Cookson) and varying concentrations of indicated compounds at 37° C., 5% CO2. Assays were stopped by removal of media and addition of 100% ice cold ethanol. Plates were then frozen for a minimum of two hours before complete evaporation of ethanol. The well contents were then reconstituted in 50 μl cAMP assay buffer (20 mM HEPES pH 7.5 and 5 mM EDTA). Half of the reconstituted sample was transferred to round bottom 96-well plates (Greiner Bio-One GmbH) with 50 μl 0.01% w/v PKA (cAMP dependent protein kinase (Sigma-Aldrich) in 1 mM Na citrate pH 6.5 with 2 mM dithiothreitol) and 25 μl [^3H]-cAMP (at 22 nM in cAMP assay buffer) (GE Healthcare, Life Sciences). This was allowed to equilibrate for 3-18 hours. Following this a charcoal slurry (5% (w/v) activated charcoal and 0.2% (w/v) BSA in cAMP assay buffer) was added to the samples and the plates centrifuged at 3000×g, 4° C. for 5 min. Radioactive counts within the supernatant were then determined as described for competition binding assays.
(§8) pIC50 values were determined from cAMP assays by fitting a sigmoidal concentration response curve using Prism 4.02.

human CB2 receptor [4] = biological target: T1, human CB2 receptor; assay: cell-based
From the text: as §1, §2, §7, §8

human CB2 receptor [5] = biological target: T1, human CB2 receptor; assay: Membrane [35S]GTPγS binding assay; assay type: biochemical; details: for Emax: read-out: [35S]GTPγS Emax
Protocol: Human CB2 expressing CHO-K1 membranes (5 μg per incubation mixture) were diluted in 50 mM Tris-HCl (pH 7.5) and 0.5 mM EDTA and added to HU compounds in a pre-mixed incubation cocktail. Final incubation concentrations were 55 mM Tris-HCl (pH 7.4), 1 mM EDTA, 100 mM NaCl, 5 mM MgCl2, 0.5% BSA, 50 μM GDP, 0.2 nM [^35S]GTPγS (PerkinElmer) with varied HU compound concentration and 5 μg membrane. Incubations were continued for 60 minutes at 30° C. in a shaking water bath. Assays were terminated by addition of 2 ml ice cold wash buffer (50 mM Tris-HCl, pH 7.5 and 5 mM MgCl2) and filtration through pre-soaked GF/C filters (Whatman), followed by two further washes. adioactivity was determined as described for competition binding assays.
Data was analyzed using the Prism 4.02 programme (GraphPad Software, San Deigo, Calif., USA). IC50 and EC50 values, as determined from sigmoidal curves, were generated from drug concentrations plotted in log scale. […] It is possible to display data as an average, plus or minus the standard error of the mean in log form, however, this is not easily interpreted or compared to other values. It was therefore elected to calculate the 95% confidence interval for the mean value in log form and then convert the lower limit, mean and upper limit into the molar (linear) scale. […] Two-tailed t-tests for statistical analysis between enantiomeric pairs of compounds were performed for CB2 Ki values. The Pearson value, an indication of linearity, was determined for Ki and IC50 or EC50 results obtained for CB2 receptors in binding, cAMP or GTPγS experiments, respectively.

closed head injury (CHI) = assay: Closed head injury (CHI) model, neurological severity score, Sabra mice; assay type: in vivo; details: SR144528 1 mg/kg i.p. 1 h after CHI, 24 h to 14 day, vs vehicle control
Protocol: The study was conducted according to the guidelines of the Institutional Animal Care Committee of the Hebrew University. Male Sabra mice weighing 35 to 50 g were used in all experiments. Animals were kept under controlled light conditions with a 12 h/12 h light/dark cycle. Experimental closed head injury (CHI) was induced using a modified weight drop device developed in our laboratory as described previously (Chen et al., 1996). At 1 h after CHI, the functional status of the mice was evaluated according to a set of 10 neurobehavioral tasks, namely the neurological severity score (NSS). This score is based on the ability of the mice to perform 10 different tasks (Beni-Adani et al., 2001) that evaluate their motor ability, balance, and alertness. One point is given for failing to perform a task. […] A score of 10 reflects maximal neurologic impairment, and a decrease of NSS during the recovery period indicates partial recovery of function.
Data was analyzed using the Prism 4.02 programme (GraphPad Software, San Deigo, Calif., USA). The data are expressed as mean±SEM and statistical significance was assessed with one way analysis of variance (ANOVA) followed by a Dunnett's post-hoc analysis for TNF-α levels. Nonparametric NSS values were compared between the two groups at each time point.
In this study four groups of mice were subjected to CHI (n=10/group and control n=9), after which the following agents were administered: • Group 1 (Control): Vehicle only (ethanol:cremophor:saline at ratio of 1:1:18), 1 h after CHI. • Group 2: HU-910, 0.1 mg/kg, dissolved in vehicle (1:1:18 ethanol:cremophor:saline), i.p. 1 h after CHI. • Group 3: HU-910, 1.0 mg/kg, dissolved in vehicle (1:1:18 ethanol:cremophor:saline), i.p. 1 h after CHI. • Group 4: HU-910, 10.0 mg/kg, dissolved in vehicle (1:1:18 ethanol:cremophor:saline), i.p. 1 h after CHI.
In this study four groups of mice were subjected to CHI (n=9/group), after which the following agents were administered: • Group 1 (Control): Vehicle only (ethanol:cremophor:saline at ratio of 1:1:18), 1 h after CHI. • Group 2: HU-910, 10 mg/kg, dissolved in vehicle (1:1:18 ethanol:cremophor:saline), i.p. 1 h after CHI. • Group 3: Specific CB2 antagonist SR144528 (N-[(1S)-endo-1,3,3-trimethylbicyclo[2.2.1]heptan-2-yl]-5-(4-chloro-3-methylphenyl)-1-(4-methylbenzyl)pyrazole-3 carboxamide), (see M. Rinaldi-Carmona, et al. J. Pharmacol. Exp. Ther. 284 (1998) 644-650), 1 mg/kg, i.p. 1 h after CHI. • Group 4: Specific CB2 antagonist (SR144528, N-[(1S)-endo-1,3,3-trimethylbicyclo[2.2.1]heptan-2-yl]-5-(4-chloro-3-methylphenyl)-1-(4-methylbenzy)pyrazole-3 carboxamide), 1 mg/kg, i.p. 1 h after CHI and HU-910 10 mg/kg administered 10 min after administration of antagonist.
In this study four groups of mice were subjected to CHI (n=7-8/group), after which the following agents were administered: • Group 1 (Control): Vehicle only (Dimethyl Sulfoxide (DMSO): Tween 80: Saline at ratio of 1:1:18), i.p. 1 h after CHI. • Group 2: HU-910, 10 mg/kg, dissolved in Vehicle, i.p. 1 h after CHI. • Group 3: Specific CB2 antagonist/inverse agonist AM630 (6-Iodo-2-methyl-1-[2-(4-morpholinyl)ethyl]-1H-indol-3-yl](4-methoxyphenyl)methanone) (Ross et al. 1999)), dissolved in Vehicle, 1 mg/kg, i.p. 1 h after CHI and HU-910, dissolved in Vehicle, 10 mg/kg administered 10 min after administration of antagonist/inverse agonist. • Group 4: Specific CB2 antagonist/inverse agonist AM630 (6-Iodo-2-methyl-1-[2-(4-morpholinyl)ethyl]-1H-indol-3-yl](4-methoxyphenyl)methanone), dissolved in Vehicle, 1 mg/kg, i.p. 1 h after CHI

[6] = CHO, read-out: cAMP Assay CB2 Receptor Emax
[7] = read-out: cAMP Assay CB2 Receptor IC50
[8] = CHO-CB2 cellular membranes, 2.5 nM [3H]-CP 55,940
[9] = CHO; read-out: cAMP Assay CB2 Receptor Emax
[10] = whole cells expressing CB2, 50 μM forskolin; read-out: cAMP Assay CB2 Receptor IC50
[11] = human CB2 CHO-K1 membranes, mean (95% confidence interval), n = 5

| Compound | Ki (human CB2 receptor [1]) | Ki (human CB1 receptor [2]) | IC50 (human CB1 receptor [3]) | Emax (human CB2 receptor [4]; [6]) | IC50 (human CB2 receptor [4]; [7]) | EC50 (human CB2 receptor [5]) | Emax (human CB2 receptor [5]) | extent of recovery ΔNSS, antagonist alone (closed head injury (CHI)) | Ki (human CB2 receptor [1]; [8]) | Emax (human CB2 receptor [4]; [9]) | IC50 (human CB2 receptor [4]; [10]) | EC50 (human CB2 receptor [5]; [11]) |
| --- | --- | --- | --- | --- | --- | --- | --- | --- | --- | --- | --- | --- |
| CCCCCCC(C)(C)c1cc(OC)c(C2=C[C@@H]3CC[C@@]2(C(=O)O)C3(C)C)c(OC)c1 [HU-913, (1R,4S)-2-(2,6-dimethoxy-4-(2-methyloctan-2-yl)phenyl)-7,7-dimethylbicyclo[2.2.1]hept-2-ene-1-carboxylic acid] | 81.5 nM | > 50000 nM | > 50000 nM | 101 ± 11% | 330 nM | 344 nM | 98 ± 3% | – | – | – | – | – |
| N-[(1S)-endo-1,3,3-trimethylbicyclo[2.2.1]heptan-2-yl]-5-(4-chloro-3-methylphenyl)-1-(4-methylbenzyl)pyrazole-3 carboxamide [SR144528, reference compound] | – | – | – | – | – | – | – | recovery was significantly reduced | – | – | – | – |
| CCCCCCC(C)(C)c1cc(OC)c(C2=C[C@@H]3CC[C@@]2(CO)C3(C)C)c(OC)c1 [HU-909, (1R,4S)-(2-(2,6-dimethoxy-4-(2-methyloctan-2-yl)phenyl)-7,7-dimethylbicyclo[2.2.1]hept-2-en-1-yl)methanol] | 56.8 nM | 11700 nM | > 50000 nM | 95 ± 6% | 425 nM | 136 nM | 76 ± 7% | – | – | – | – | – |
| CCCCCCC(C)(C)c1cc(OC)c(C2C(O)[C@]3(C)CC[C@H]2C3(C)C)c(OC)c1 (stereo partly drawn) [HU-928, (1R,4R)-3-(2,6-dimethoxy-4-(2-methyloctan-2-yl)phenyl)-1,7,7-trimethylbicyclo[2.2.1]heptan-2-ol] | 230 nM | > 50000 nM | > 50000 nM | 101 ± 11% | 925 nM | 577 nM | 95 ± 5% | – | – | – | – | – |
| CCCCCCC(C)(C)c1cc(OC)c(C2C(=O)[C@]3(C)CC[C@H]2C3(C)C)c(OC)c1 (stereo partly drawn) [HU-926, (1R,4R)-3-(2,6-dimethoxy-4-(2-methyloctan-2-yl)phenyl)-1,7,7-trimethylbicyclo[2.2.1]heptan-2-one] | – | > 50000 nM | > 50000 nM | – | – | – | 51 ± 6% | – | 106 nM | 100 ± 13% | 321 nM | 185 nM |
| CCCCCCC(C)(C)c1cc(OC)c(C2=C[C@@H]3CC[C@@]2(C(=O)OC)C3(C)C)c(OC)c1 [HU-911, (1R,4S)-methyl-2-(2,6-dimethoxy-4-(2-methyloctan-2-yl)phenyl)-7,7-dimethylbicyclo[2.2.1]hept-2-ene-1-carboxylate] | – | > 50000 nM | > 50000 nM | – | – | – | 94 ± 4% | – | 84.6 nM | 86 ± 9% | 385 nM | 126 nM |
